# According to US11078499B2, “Host cells and methods for producing toluene biochemically” (The Regents of the University of California, priority 2018, dated 2021):
# Tested on: PhdB
# Experiment: Assays testing whether PhdB could decarboxylate o-, m-, or p-hydroxyphenylacetate, equimolar with phenylacetic acid-2-13C
# Assay type: biochemical, Acidobacteria strain Tolsyn
# Details: for PhdB activity on substrate: relative to phenylacetate, equimolar 2.5 mM
# Method: Analogous assays with o- and m-hydroxyphenylacetate similarly indicated very low (in this case, undetectable) PhdB activity for these hydroxyphenylacetate isomers, whereas labeled toluene is easily detected.
# Assays for phenylacetate decarboxylase activity were performed under strictly anaerobic conditions within a glove box. Assays, which were performed in 4-mL glass vials sealed with 13-mm diameter PTFE Mininert screw-cap valves (Sigma-Aldrich), contained […] PhdA in assay buffer [50 mM TRIS (pH 7.5), 150 mM NaCl, 1 mM MgCl2, 5 mM (NH4)2SO4, 5 mM DTT)], to which 2 mM dithionite was added and incubated for ˜1 hour, followed by the addition of 2 mM SAM, 2.5 μM PhdB in assay buffer, and 2.5 mM phenylacetic acid-2-^13C in a final volume of 1 or 1.5 mL (depending on the specific experiment). Quantitative standards contained the same headspace/liquid ratios as assays and a dimensionless Henry's constant of 0.27^43 was used to calculate aqueous concentration. Negative controls were run concurrently and were identical except for the absence of SAM (FIG. 6). The vials were shaken on a tabletop orbital shaker at low speed. Gaseous headspace samples (100 μL) were taken within the glove box using a 500-μL gastight syringe (Sample-Lok series A-2; Sigma-Aldrich) and analyzed immediately by GC/MS, as described previously^8. Briefly, toluene was analyzed by static headspace, electron ionization (EI) GC/MS using a model 7890A GC (Agilent, Santa Clara, Calif.) with a DB-5 fused silica capillary column (30-m length, 0.25-mm inner diameter, 0.25-μm film thickness; Agilent) coupled to an HP 5975C series quadrupole mass spectrometer. As described elsewhere^8, the identity of [methyl-^13C]toluene was confirmed with the expected m/z 93/92 ratio of 0.6. Replicates involved separate assays rather than multiple analyses of a given assay sample. In assays testing whether PhdB could decarboxylate o-, m-, or p-hydroxyphenylacetate to o-, m-, or p-cresol, conditions were as described above except that equimolar amounts (2.5 mM) of o-, m-, or p-hydroxyphenylacetic acid (Sigma) and phenylacetic acid-2-^13C were added, and GC/MS analysis of o-, m-, or p-cresol in 1-μL liquid injections of concentrated hexane extracts were conducted as described previously^8. The identity of o-, m-, or p-cresol was assessed using retention time and the expected m/z 108/107 ratio of 1.16, 1.05, or 0.83, respectively, based on authentic standards.
Structure (SMILES),"p-cresol level relative to that expected if PhdB activity were comparable to phenylacetate (equimolar phenylacetate and p-hydroxyphenylacetate (2.5 mM) with PhdA, PhdB and SAM)",PhdB activity on substrate
O=C(O)Cc1ccc(O)cc1 [p-hydroxyphenylacetate],approximately 100 fold lower,far lower activity
"O=C(O)Cc1cccc(O)c1 [m-hydroxyphenylacetate, m-hydroxyphenylacetic acid]",,undetectable
"O=C(O)Cc1ccccc1O [o-hydroxyphenylacetate, o-hydroxyphenylacetic acid]",,undetectable
